Results reported in patent US9434711B2 (Janssen Pharmaceutica, NV, priority 2007, dated 2016).
Where two headings read alike, the source gives them in different places.

What was measured:
male Sprague-Dawley rats = assay: Cold-Evoked Cardiovascular Pressor Responses (anesthetized rat cold pressor paradigm); format: in vivo; conditions: HPbCD, 1.5 hours relative to Cold Challenge, Na salt form
Description: Compounds of the formula (I) can be tested in animals and humans for their ability to mitigate cardiovascular pressor responses evoked by cold exposure. Seasonal environmental cooling is directly associated with elevated blood pressure and an increased incidence of coronary events in human populations worldwide (Barnett, A G et al. J Epidemiol Community Heath 2005, 59 551-557). Cold-evoked pulmonary hypertention and cold aggravation of chronic obstructive pulmonary disease are clinical indications susceptible to heightened cardiopulmonary sensitivity to cold (Marno P et al. Eur Respiratory Review 2006, 15 (101): 185.; Acikel M et al Int J of Cardiol (2004) 97: 187-192). The clinical cold pressor test assesses changes in blood pressure (BP) and cold pain perception during a 2-3 minute immersion of one hand into ice water. […] Compounds of the formula (I) can be studied in an anesthetized rat cold pressor paradigm to determine whether TRPM8 antagonism would interfere with the blood pressure pressor response to cold stimulation of the forepaws. Male Sprague-Dawley rats (300-450 g) anesthetized with sodium pentobarbital are instrumented with a jugular catheter and an indwelling carotid artery cannula connected to a pressure transducer. Vehicle (e.g. 20% HPbCD in sterile water) or test compound is infused (1 mL/kg) over one minute through the intravenous catheter. Ten minutes later both forelimbs are packed in crushed ice for 5 minutes. Alternatively, the test compound and vehicle treatments may be administered orally at an appropriated time prior to the surgical cannulations and cold challenge. Percent changes in mean arterial pressure in response to this cold stimulus are calculated for vehicle and test compound pretreatments. Percent inhibition attributed to treatment with test compound is then determined using the following formula: % Inhibition=[1−(cold evoked % change in BP post-test compound/cold evoked % change in BP post-vehicle)]×100.

rat TRPM8 = rat TRPM8 (Rattus norvegicus (Rat), UniProt Q8R455); assay: In Vitro Rat TRPM8 Functional Assay (Ca2+ fluorescence, icilin EC80); format: cell-based; conditions: read-out: rTRPM8 IC50
Experimental: HEK293 cells are routinely grown as monolayer in Dulbecco's minimum essential medium supplemented with 10% FBS, 1 mM L-glutamine, 100 units/mL penicillin and 100 ug/mL streptomycin. Cells are maintained in 5% CO2 at 37° C.
For functional expression of TRPM8, the full-length cDNA encoding human and rat TRPM8 are subcloned into pCI-NEO mammalian expression vectors. The expression constructs are transiently transfected into HEK293 cells according to the FuGENE 6 Transfection Reagent® (ROCHE) instructions. Within twenty-four hours, transiently transfected cells are harvested and either seeded directly into assay plate or cryopreserved for future usage. […]
Maximal fluorescence intensity (FI) achieved upon addition of icilin is exported from the FDSS and further analyzed using GraphPad Prism 3.02 (Graph Pad Software Inc., CA, U.S.A.) where data is normalized to percent of maximal response. The dose response curves from the average of quadruplicate wells for each data point are analyzed by using nonlinear regression of either sigmoidal dose response or sigmoidal dose response (variable slope). Finally, the IC50 values are calculated with the best-fit dose curve determined by Prism.

Male Sprague Dawley rats = assay: Rightward Shift of Icilin Dose Effect Curve in Rats; format: in vivo; conditions: Rattus norvegicus; compound 3 mg/kg p.o., 60 pre-icilin; icilin i.p.; read-out: Icilin ED50, mg/kg, i.p., compound pretreatment
Experimental: Male Sprague Dawley rats (200-400 g, Charles River Labs, n=6-9/treatment) were administered icilin in a suitable vehicle (e.g. PEG-400, 10% Solutol) at 0.1-30 mg/kg, i.p. Spontaneous “wet-dog” shakes were counted 10-20 minutes post-icilin in order to generate a icilin dose-effect curve. A compound of the present invention was administered orally in hydroxypropyl-β-cyclodextrin 60 minutes before icilin challenge to assess the compound's ability to inhibit spontaneous “wet-dog” shakes (WDS) produced by a range of icilin doses. The ED50 of the icilin dose-effect curve generated in the presence of TRPM8 antagonist may be compared to that generated in the presence of vehicle to determine the magnitude of rightward shift as shown below in Table 7.

Chain of rat TRPM8 (Q8R455 whole entry): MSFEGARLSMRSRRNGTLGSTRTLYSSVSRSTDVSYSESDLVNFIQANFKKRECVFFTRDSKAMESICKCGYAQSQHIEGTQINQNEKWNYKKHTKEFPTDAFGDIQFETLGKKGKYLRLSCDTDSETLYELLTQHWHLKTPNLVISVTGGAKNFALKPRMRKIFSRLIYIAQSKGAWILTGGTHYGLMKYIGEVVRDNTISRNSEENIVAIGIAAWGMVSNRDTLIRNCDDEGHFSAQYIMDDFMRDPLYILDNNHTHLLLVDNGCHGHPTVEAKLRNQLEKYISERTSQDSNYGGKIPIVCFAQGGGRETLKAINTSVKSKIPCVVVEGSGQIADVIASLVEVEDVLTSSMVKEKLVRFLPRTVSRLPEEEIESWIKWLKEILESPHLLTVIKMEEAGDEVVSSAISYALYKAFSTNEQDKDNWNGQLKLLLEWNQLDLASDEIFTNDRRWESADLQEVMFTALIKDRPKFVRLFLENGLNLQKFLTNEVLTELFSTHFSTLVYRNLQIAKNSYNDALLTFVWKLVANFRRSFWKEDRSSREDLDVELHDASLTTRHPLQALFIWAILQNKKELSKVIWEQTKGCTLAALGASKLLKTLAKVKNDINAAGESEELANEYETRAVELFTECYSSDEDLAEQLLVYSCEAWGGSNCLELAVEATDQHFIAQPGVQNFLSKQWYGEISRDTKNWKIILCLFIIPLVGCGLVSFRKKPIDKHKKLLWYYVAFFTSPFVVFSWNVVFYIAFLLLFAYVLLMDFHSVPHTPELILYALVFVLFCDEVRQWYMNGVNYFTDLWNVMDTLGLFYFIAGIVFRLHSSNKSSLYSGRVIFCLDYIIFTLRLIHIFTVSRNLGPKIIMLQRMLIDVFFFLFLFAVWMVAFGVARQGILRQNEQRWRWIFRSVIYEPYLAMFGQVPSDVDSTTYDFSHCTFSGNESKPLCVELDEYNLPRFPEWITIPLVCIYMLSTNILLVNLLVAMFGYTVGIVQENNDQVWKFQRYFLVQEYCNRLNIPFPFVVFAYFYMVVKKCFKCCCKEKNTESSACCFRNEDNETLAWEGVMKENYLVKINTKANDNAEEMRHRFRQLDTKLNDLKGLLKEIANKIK

IC50 (rat TRPM8; Freshly transfected cells) [nM] | IC50 (rat TRPM8; Cryopreserved cells) [nM] | SMILES | Percent Inhibition, relative to vehicle (male Sprague-Dawley rats; dose 1 p.o.) [%] | Percent Inhibition, relative to vehicle (male Sprague-Dawley rats; dose 3 p.o.) [%] | Percent Inhibition, relative to vehicle (male Sprague-Dawley rats; dose 10 p.o.) [%] | Percent Inhibition, relative to vehicle (male Sprague-Dawley rats; dose 30 p.o.) [%] | ED50 (Male Sprague Dawley rats) [mg/kg]
5 |  | Cc1c(N(Cc2ccc(F)c(C(F)(F)F)c2)S(=O)(=O)c2ccc(C(=O)O)cc2)sc2ccccc12 [Compound 306, N-(3-Methyl-benzo[b]thiophen-2-yl)-N-(4-fluoro-3-trifluoromethyl-benzyl)-4-carboxy-benzenesulfonamide] | 16 | 41 | 62 | 75 | 2.96
 | 1.8 | Cc1c(N(Cc2ccc(OC(F)(F)F)cc2)S(=O)(=O)c2ccc(C(=O)O)cc2)sc2ccccc12 [Compound 496, N-(3-Methyl-benzo[b]thiophen-2-yl)-N-(4-trifluoromethoxy-benzyl)-4-carboxy-benzenesulfonamide] |  |  |  |  | 
